Source: patent US8778966B2, “Quinolinone derivatives as PARP and tank inhibitors” (Janssen Pharmaceutica, NV, priority 2007, dated 2014)
Like-named read-outs stand apart in the source and are kept apart here.

Tests used:
Type in all cases: cell-based, human
[1] = system: PC-3 cells; experiment: Antiproliferative activity, Alamar Blue assay, PC-3 cells; settings: Homo sapiens, PC-3, PC3 cells, read-out: PC3 antiproliferative activity pIC50 (converted)
Method in brief: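 Resazurin-based fluorescence (540 nm ex/590 nm em) measured after 4-day compound treatment plus 24 hrs dye incubation at 37° C. Cells plated at 4.5×10^3 cells/ml, adhered 24 hr first. pIC50 from probit-derived IC50 on % viable cells versus untreated, triplicate wells.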

[2] = system: PC3 cells; experiment: EB1 Comet (microtubule disruption) assay; settings: Homo sapiens, PC-3, 1 h, 1 hour treatment, read-out: EB1 pLAC (converted)
Method in brief: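 Readout is loss of Eb1 plus-end foci, scored by immunofluorescence microscopy, in PC3 cells after 1 h compound treatment at 37 °C with 0.6% final DMSO. LAC is defined as the lowest concentration leaving at least 50% of cells without Eb1 foci.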

[3] = system: HCT116 cells; experiment: Antiproliferative activity, Alamar Blue assay, HCT116 cells; settings: Homo sapiens, HCT-116, HCT116 cells, read-out: HCT116 antiproliferative activity pIC50 (converted)
Method in brief: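 Readout is resazurin fluorescence (ex 540, em 590 nm) after a 4 h dye incubation at 37 °C, following 4-day compound treatment of HCT116 cells plated 24 h earlier. Results expressed as % viable cells versus untreated; pIC50 derived from probit-fitted IC50.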

Row | Structure (SMILES) | IC50 ([1]; Alamar Blue) [nM] | IC50 ([3]; Alamar Blue) [nM] | IC50 [1] [nM] | IC50 [3] [nM] | minimal effective concentration [2] [µM]
1 | CCc1cc2ccc(C(C)(C#N)Cc3cccc(N4CCC(N(C)C)C4)n3)cc2[nH]c1=O (stereo not drawn) [Compound 209] | 5010 | 2000 | – | – | 0.316
2 | CCc1cc2ccc(C(C)(C#N)Cc3cccc(C#Cc4cncn4C)n3)cc2[nH]c1=O (stereo not drawn) [Compound 217] | 6310 | 5010 | – | – | 1
3 | CCc1cc2ccc(C(C)(C#N)Cc3cccc(N(C)CCc4ccccc4)n3)cc2[nH]c1=O.Cl (stereo not drawn) [Compound 220] | 7940 | 2000 | – | – | 3.16
4 | CCc1cc2ccc(C(C)(C#N)Cc3cccc(C#N)[n+]3[O-])cc2[nH]c1=O (stereo not drawn) [Compound 228] | – | – | 3160 | 1580 | 0.562
5 | CCc1cc2c(OC)cc(C(C)(C#N)Cc3nc(OC)cc(OC)n3)cc2[nH]c1=O (stereo not drawn) [Compound 229] | 5010 | 2510 | – | – | 3.16
6 | CCc1cc2ccc(C(C)(C#N)CN3CCN(c4ccccn4)CC3)cc2[nH]c1=O (stereo not drawn) [Compound 233] | 2000 | 1000 | – | – | 1
7 | CCc1cc2ccc(C(C)(C#N)Cc3cccc4c3CCN4)cc2[nH]c1=O (stereo not drawn) [Compound 237] | 6310 | 2510 | – | – | 3.16
8 | Cc1cc2ccc(C(C)(C#N)Cc3cccc(I)c3)cc2[nH]c1=O (stereo not drawn) [Compound 256] | 1000 | 398 | – | – | 0.316
9 | CCc1cc2ccc(C(C)(C#N)Cc3cccc(NC)c3)cc2[nH]c1=O (stereo not drawn) [Compound 257] | 1580 | 631 | – | – | 0.316
10 | Cc1cc2ccc(C(C)(C#N)Cc3cccc(OCC4CCOCC4)c3)cc2[nH]c1=O (stereo not drawn) [Compound 261] | 6310 | 5010 | – | – | 1.78
11 | CCc1cc2ccc(C(C)(C#N)Cc3cc(F)ccc3F)cc2[nH]c1=O (stereo not drawn) [Compound 280] | 631 | 794 | – | – | 1
12 | CCc1cc2ccc(C(C)(C#N)Cc3ccc(F)c(F)c3)cc2[nH]c1=O (stereo not drawn) [Compound 281] | 1580 | 2000 | – | – | 0.316
13 | CCc1cc2ccc(C(C)(C#N)Cc3cc(C(F)(F)F)ccc3F)cc2[nH]c1=O (stereo not drawn) [Compound 283] | 2000 | 794 | – | – | 1
14 | CCOc1cccc(CC(C)(C#N)c2ccc3cc(CC)c(=O)[nH]c3c2)c1 (stereo not drawn) [Compound 285] | 1580 | 794 | – | – | 0.316
15 | CCc1cc2ccc(C(C)(C#N)Cc3cccc(OC)c3F)cc2[nH]c1=O (stereo not drawn) [Compound 286] | 2000 | 5010 | – | – | 0.562
16 | CCc1cc2ccc(C(C)(C#N)Cc3cc(OC)c(OC)c(OC)c3)cc2[nH]c1=O (stereo not drawn) [Compound 289] | 316 | 126 | – | – | 0.0316

Now from value to compound, other results behind:

Row | IC50 ([1]; Alamar Blue) [nM] | IC50 ([3]; Alamar Blue) [nM] | IC50 [1] [nM] | IC50 [3] [nM] | Structure (SMILES) | minimal effective concentration [2] [µM]
17 | 1000 | 631 | – | – | CCc1cc2ccc(C(C)(C#N)Cc3cccc(/C=N/O)c3)cc2[nH]c1=O (stereo not drawn) [Compound 299] | 1
18 | 501 | 631 | – | – | CCc1cc2ccc(C(C)(C#N)CN(C)Cc3ccc(C#N)cc3)cc2[nH]c1=O (stereo not drawn) [Compound 300] | 0.1
19 | 5010 | 5010 | – | – | CCc1cc2ccc(C(C)(C#N)CNCc3ccc(C#N)cc3)cc2[nH]c1=O (stereo not drawn) [Compound 302] | 1
20 | 3160 | 794 | – | – | Cc1cc2ccc(C(C)(C#N)Cc3cccc(Oc4ccccc4)c3)cc2[nH]c1=O (stereo not drawn) [Compound 305] | 3.16
21 | 251 | 200 | – | – | CCc1cc2ccc(C(C)(C#N)Cc3nc(C#N)cc(OC)n3)cc2[nH]c1=O (stereo not drawn) [Compound 313] | 0.0316
22 | – | – | 1000 | 631 | CCc1cc2ccc(C(C)(C#N)Cc3cc(C#N)nc(OC)c3)cc2[nH]c1=O (stereo not drawn) [Compound 314] | 1
23 | 5010 | 5010 | – | – | CCc1cc2ccc(C(C)(C#N)Cc3cc(N(C)C)nc(C#N)n3)cc2[nH]c1=O (stereo not drawn) [Compound 317] | 1
24 | 631 | 631 | – | – | CCc1cc2ccc(C(C)(C#N)Cc3nc(C#N)cc(N(C)C)n3)cc2[nH]c1=O (stereo not drawn) [Compound 318] | 0.316
25 | 3980 | 2510 | – | – | CCc1cc2ccc(C(C)(C#N)Cc3cc(C#N)nc(C)n3)cc2[nH]c1=O (stereo not drawn) [Compound 319] | 1
26 | 631 | 398 | – | – | CCc1cc2ccc(C(C)(C#N)Cc3cc(N(C)C)nc(N(C)C)n3)cc2[nH]c1=O (stereo not drawn) [Compound 320] | 0.316
27 | 2510 | 2000 | – | – | CCc1cc2ccc(C(C)(C#N)Cc3cc(N(C)C)nc(C)n3)cc2[nH]c1=O (stereo not drawn) [Compound 322] | 1
28 | – | – | 1260 | 794 | CCc1cc2ccc(C(C)(C#N)Cc3cc(C#N)nc(N(C)C)c3)cc2[nH]c1=O (stereo not drawn) [Compound 325] | 3.16
29 | – | – | 3980 | 3160 | CCc1cc2ccc(C(C)(C#N)Cc3c4ccccc4nn3C)cc2[nH]c1=O (stereo not drawn) [Compound 347] | 0.562
30 | 1580 | 794 | – | – | CCc1cc2ccc(C(C)(C#N)Cc3cc(OC)nc(OC)c3)cc2[nH]c1=O (stereo not drawn) [Compound 350] | 1
31 | 501 | 398 | – | – | CCc1cc2ccc(C(C)(C#N)Cc3cc(Cl)nc(OC)c3)cc2[nH]c1=O (stereo not drawn) [Compound 351] | 0.1
32 | 6310 | 3160 | – | – | CCc1cc2ccc(C(C)(C#N)Cc3cc(N(C)C)nc(OC)n3)cc2[nH]c1=O (stereo not drawn) [Compound 354] | 1
33 | 631 | 631 | – | – | CCc1cc2ccc(C(C)(C#N)Cc3cc(Cl)nc(C)n3)cc2[nH]c1=O (stereo not drawn) [Compound 365] | 0.316
34 | 1000 | 2000 | – | – | CCc1cc2ccc(C(C)(C#N)CN3CCC(c4ccccc4)CC3)cc2[nH]c1=O (stereo not drawn) [Compound 375] | 0.316
35 | 794 | 1000 | – | – | CCc1cc2ccc(C(C)(C#N)CN3CCN(c4ccc(C#N)cn4)CC3)cc2[nH]c1=O (stereo not drawn) [Compound 377] | 1
36 | 794 | 501 | – | – | CCc1cc2ccc(C(C)(C#N)Cc3cc(Br)cc4c3OCC4)cc2[nH]c1=O (stereo not drawn) [Compound 378] | 0.316
37 | 5010 | 2510 | – | – | Cc1cc2ccc([C@](C)(C#N)[C@H]3CCc4ccccc43)cc2[nH]c1=O [Compound 387] | 3.16
38 | 794 | 398 | – | – | Cc1cc2ccc(C(C)(C#N)C3CCc4ccccc43)cc2[nH]c1=O (stereo not drawn) [Compound 392] | 0.316
39 | 3980 | 1580 | – | – | Cc1cc2ccc(C(C)(C#N)C3CCCc4ccccc43)cc2[nH]c1=O (stereo not drawn) [Compound 404] | 0.562
